Patent US20180133221A1, “ADMINISTRATION OF UBIQUITIN-ACTIVATING ENZYME INHIBITOR AND CHEMOTHERAPEUTIC AGENTS” (Millennium Pharmaceuticals, Inc., priority 2014, published 2018)

Assays:
[1] = tested on: SKOV-3 ovarian cell-line derived xenograft; experiment: SKOV-3 xenograft model, Compound 1 and carboplatin; type: in vivo, nude mice; conditions: for Tumor Volume Day 14: in mm³ (unit assumed)
Procedure: SKOV-3 is an ovarian cell-line derived xenograft. Ten week old female nude mice (Taconic Farms, Inc) were inoculated subcutaneously in flank (cell suspension) with 4.0×10^6 SKOV-3 cells suspended in serum free DMEM+Matrigel. When the mean tumor volume reached approximately 200 mm^3, the animals were randomized into 12 treatment groups (n=5/group).
(§1) Carboplatin (Teva Pharmaceuticals) is formulated in 0.9% saline and administered by IP injection once weekly (QW) at 25, 50, 60, and 75 mg/kg. The once weekly schedule is also described as every 7 days (Q7D).
(§2) Compound 1 [((1R,2R,3S,4R)-2,3-dihydroxy-4-(2-(3-(trifluoromethylthio)-phenyl)pyrazolo[1,5-a]pyrimidin-7-ylamino)cyclopentyl)methyl sulfamate] is formulated in 10-20% HPbCD in sterile water and administered intravenously (IV) or subcutaneously (SC) on a BIW (twice/week schedule; Monday and Thursday or Tuesday and Friday) for either 2-4 weeks.
(§3) Tumors were measured twice weekly using vernier calipers. Tumor volumes were calculated using the standard formula V=W^2×L/2,). When mean tumor volumes reached approximately 200 mm^3 for PHTX-24C, 220 mm^3 for PHTX-Lu132, 150 mm^3 for CTG-0256, 260 mm^3 for CTG-0486, 185 mm^3 for PHTX-17C, 260 mm^3 for CTG-0165, 150 mm^3 for PHTX-14B in the study of Compound 1 and paclitaxel, 180 mm^3 for PHTX-14B in the study of Compound 1 and docetaxel, 200 mm^3 for SKOV-3, 220 mm^3 for PHTX-02B in the study of Compound 1 and docetaxel, 250 mm^3 for PHTX-02B in the study of Compound 1 and paclitaxel, 195 mm^3 for CTG-0159, 180 mm^3 for CTG-0012 or 150 mm^3 for Calu-6, mice were randomized into groups of n=5-7/arm as described in the tables below, and injected with vehicle, Compound 1 or agents (docetaxel, paclitaxel, oxaliplatin, cisplatin or carboplatin), or the combination of Compound 1 plus one of the agents, at various doses and schedules as described in tables below. Tumor size and body weight were measured approximately twice a week for the duration of the study. Mice are euthanized when their tumor volume reached 10% of their body weight, or when the average tumor volume of a treatment or control group reached approximately 2000 mm^3. Tumor growth continued to be monitored after the dosing period in some studies. Average tumor volume is reported as a function of time for selected arms of selected studies in the Figures.
(§4) Measurements from day 0 to day 14, day 19, day 21, or day 28 are analyzed as specified in Tables below. All tumor volumes have a value of 1 added to them before log10 transformation. For each animal, the log tumor volume at day 0 is subtracted from the log tumor volume on the subsequent days. This difference vs. time is used to calculate an area under the curve (AUC) for each animal using the trapezoid rule. […] The synergy score for the combination of agents A and B is defined as
(§5) 100*(mean(AUCAB)−mean(AUCA)−mean(AUCB)+mean(AUCctl))/mean(AUCctl):
(§6) where AUCAB, AUCA, AUCB, and AUCctl are the AUC values for animals in the combination group, the A group, the B group, and the control group, respectively. The standard error of the synergy score is computed based on the variation in the AUC values among the animals. […] If the P-value is above 0.05, then the combination is considered to be additive. If the P-value is below 0.05, and the synergy score is less than zero, then the combination is considered to be synergistic.

[2] = tested on: CTG-0256 human ovarian xenograft; experiment: CTG-0256 xenograft model, Compound 1 and carboplatin; type: in vivo, Mus musculus/nu/nu mice
Excerpt: The CTG-0256 model of human ovarian xenograft model was established from a patient-derived tumor collected during surgery at primary site from a person with ovarian cancer (serous adenocarcinoma with resistant response to carboplatin or paclitaxel). CTG-0256 tumor fragments (approximately 2×2×3 mm^3) were implanted into the subcutaneous space in the right dorsal flank of female Mus musculus/nu/nu mice (age 6-9 weeks, Harlan Laboratories, Madison, Wis.) using a 13-gauge trocar. When the mean tumor volume reached approximately 150 mm^3, the animals were randomized into 7 treatment groups (n=7/group).
as §1, §2, §3, §4, §5, §6

[3] = tested on: CTG-0486 human ovarian xenograft; type: in vivo
Excerpt: The CTG-0486 model of human ovarian xenograft model was established from a patient-derived tumor collected during surgery from a person with ovarian cancer (serous adenocarcinoma, metastases to the small bowel). CTG-0486 tumor fragments (approximately 2×2×3 mm^3) are implanted into the subcutaneous space in the right dorsal flank of female Mus musculus/nu/nu mice (age 6-9 weeks, Harlan Laboratories, Madison, Wis., USA) using a 13-gauge trocar needle. When the mean tumor volume reached approximately 260 mm3, the animals were randomized into 8 treatment groups (n=5/group).
[…] The once weekly schedule is also described as every 7 days (Q7D).
as §2, §3, §4, §5, §6

[4] = tested on: PHTX-132Lu non-small cell lung xenograft
Excerpt: The PHTX-132Lu non-small cell lung xenograft model was established from a patient-derived tumor collected during surgery from a person with lung cancer (Poorly Differentiated Adenocarcinoma). PHTX-132Lu tumor fragments (approximately 2×2×3 mm^3) are implanted into the subcutaneous space in the right dorsal flank of female CB-17 SCID mice (age 10 weeks, Charles River Laboratory, Wilmington, Mass.) using a 13-gauge trocar. When the mean tumor volume reached approximately 220 mm^3, the animals were randomized into 12 treatment groups (n=5/group).
as §1, §2, §3, §4, §5, §6

[5] = tested on: CTG-0165 human lung NSCLC xenograft; experiment: CTG-0165 xenograft model, Compound 1 and cisplatin; type: in vivo, Mus musculus/nu/nu mice
Procedure: CTG-0165 tumor fragments (approximately 2×2×3 mm^3) were implanted into the subcutaneous space in the right dorsal flank of female Mus musculus/nu/nu mice (age 6-9 weeks, Harlan Laboratories, Madison, Wis., USA) using a 13-gauge trocar. When the mean tumor volume reached approximately 260 mm^3, the animals were randomized into 8 treatment groups (n=5/group).
Cisplatin (Teva Pharmaceuticals) is formulated in 0.9% saline and administered by IV injection once weekly (QW) at 7.5 mg/kg. The once weekly schedule is also described as every 7 days (Q7D).
as §2, §3, §4, §5, §6

[6] = tested on: PHTX-14B breast xenograft; experiment: PHTX-14B xenograft model, Compound 1 and docetaxel; type: in vivo, nude mice; conditions: for Tumor Volume Day 28: in mm³ (unit assumed)
Procedure: (§7) Docetaxel (Henry Schein, Inc., Pittsburgh Pa.) is formulated in 0.9% saline and administered by intravenous injection (IV) once weekly (QW) at 5 mg/kg or 10 mg/kg. […] Tumors were measured twice weekly using vernier calipers.

[7] = tested on: CTG-0159 human lung NSCLC xenograft; experiment: CTG-0159 xenograft model, Compound 1 and docetaxel; type: in vivo, Mus musculus/nu/nu mice; conditions: 10 mg/kg docetaxel QWx3 IV; in mm³ (unit assumed)
Procedure: as §7

[8] = tested on: PHTX-02B breast xenograft; experiment: PHTX-02B xenograft model, Compound 1 and docetaxel; type: in vivo, SCID-NOD mice; conditions: for Tumor Volume Day 21: in mm³ (unit assumed)
Procedure: as §7

[9] = tested on: Calu-6 non-small cell lung cancer xenograft; experiment: Calu-6 xenograft model, Compound 1 and docetaxel; type: in vivo, nude mice; conditions: for Tumor Volume Day 21: in mm³ (unit assumed)
Procedure: Calu-6 is a non-small cell lung cancer cell-lined derived xenograft model. Nine week old female nude mice (Taconic Farms, Inc) were inoculated subcutaneously in the flank (cell suspension) with 4.0×10^6 Calu-6 cells suspended in serum free MEM. […] Docetaxel (Henry Schein, Inc., Pittsburgh Pa.) is formulated in 0.9% saline and administered by intravenous injection (IV) once weekly (QW) at 5 mg/kg or 10 mg/kg. […] Tumors were measured twice weekly using vernier calipers.

[10] = tested on: CTG-0012 human primary triple negative breast cancer model; experiment: CTG-0012 xenograft model, Compound 1 and paclitaxel; type: in vivo, Mus musculus/nu/nu mice
Procedure: (§8) Paclitaxel (Bristol-Myers Squibb Company) is formulated in 0.9% saline and administered by intravenous injection (IV) on every 4 days (Q4D) or once weekly (QW) at 10 and 20 mg/kg. […] Tumors were measured twice weekly using vernier calipers.

[11] = tested on: PHTX-14B breast xenograft; experiment: PHTX-14B xenograft model, Compound 1 and paclitaxel; type: in vivo, Balb/c Nude Mice; conditions: for Tumor Volume Day 28: in mm³ (unit assumed)
Procedure: as §8

[12] = tested on: PHTX-02B breast xenograft; experiment: PHTX-02B xenograft model, Compound 1 and paclitaxel; type: in vivo, SCID-NOD mice; conditions: for Tumor Volume Day 19: in mm³ (unit assumed)
Procedure: as §8

[13] = single agent docetaxel 5 and 10 mg/kg IV QW
[14] = single agent paclitaxel IV at 10 mg/kg Q4D for 3 weeks

N.N.O=C([O-])C1(C(=O)[O-])CCC1.[Pt+2] [carboplatin, reference compound]
Tumor Volume Day 14 ([1]; 25 mg/kg carboplatin Q7Dx2 IP): 932.8 | Tumor Volume Day 14 ([1]; 75 mg/kg carboplatin Q7Dx2 IP): 798.5 | anti-tumor activity compared to vehicle control ([1]; single agent carboplatin 25 and 75 mg/kg IP Q7D): modest anti-tumor activity | Volume Tumor Day 14 ([2]; 50 mg/kg carboplatin Q7Dx2 IP, in mm³ (unit assumed)): 1898.1 | anti-tumor activity compared to vehicle control ([2]; single agent carboplatin IP at 50 mg/kg Q7D): modest to weak anti-tumor activity | Tumor Volume Day 21 ([3]; 60 mg/kg carboplatin Q7Dx3 IV, in mm³ (unit assumed)): 400.6 | anti-tumor activity compared to vehicle control ([3]; single agent carboplatin IP at 60 mg/kg Q7D for 3 weeks): modest to strong anti-tumor activity | Tumor Volume Day 21 ([4]; 25 mg/kg carboplatin Q7Dx3 IP, in mm³ (unit assumed)): 727 | tolerability ([4]; 75 mg/kg carboplatin Q7D×3 as single agent (study group 2)): not tolerated | anti-tumor activity compared to vehicle control ([4]; single agent carboplatin 25 mg/kg IP Q7D): modest anti-tumor activity

N.N.[Cl][Pt][Cl] [cisplatin, reference compound]
Tumor Volume Day 21 ([5]; 7.5 mg/kg cisplatin QWx3 IV, in mm³ (unit assumed)): 489.3 | anti-tumor activity compared to vehicle control ([5]; single agent cisplatin 7.5 mg/kg Q7D): modest to weak anti-tumor activity

CC(=O)O[C@@]12CO[C@@H]1C[C@H](O)[C@@]1(C)C(=O)[C@H](O)C3=C(C)[C@@H](OC(=O)[C@H](O)[C@@H](NC(=O)OC(C)(C)C)c4ccccc4)C[C@@](O)([C@@H](OC(=O)c4ccccc4)[C@H]21)C3(C)C [docetaxel, reference compound]
Tumor Volume Day 28 ([6]; 5 mg/kg docetaxel Q7Dx3 IV): 590.4 | Tumor Volume Day 28 ([6]; 10 mg/kg docetaxel Q7Dx3 IV): 195.5 | tumor growth compared to the vehicle control group [6, 13]: inhibited tumor growth | Tumor Volume Day 21 [7]: 103.2 | Tumor Volume Day 21 ([8]; 5 mg/kg docetaxel Q7Dx3 IV): 492.3 | Tumor Volume Day 21 ([8]; 10 mg/kg docetaxel Q7Dx3 IV): 232.2 | tumor growth compared to the vehicle control group [8, 13]: inhibited tumor growth | Tumor Volume Day 21 ([9]; 5 mg/kg docetaxel Q7Dx3 IV): 743.7 | Tumor Volume Day 21 ([9]; 10 mg/kg docetaxel Q7Dx3 IV): 882.6 | anti-tumor responses compared to the vehicle control [9, 13]: modest anti-tumor responses

CC(=O)O[C@H]1C(=O)[C@@]2(C)[C@H]([C@H](OC(=O)c3ccccc3)[C@]3(O)C[C@H](OC(=O)[C@H](O)[C@@H](NC(=O)c4ccccc4)c4ccccc4)C(C)=C1C3(C)C)[C@]1(OC(C)=O)CO[C@@H]1C[C@@H]2O [paclitaxel, reference compound]
Tumor Volume Day 21 ([10]; 10 mg/kg paclitaxel Q4Dx3 IV, in mm³ (unit assumed)): 731.1 | anti-tumor activity compared to vehicle control [10, 14]: modest to strong anti-tumor activity | Tumor Volume Day 28 ([11]; 10 mg/kg paclitaxel Q7Dx4 IV): 584.4 | Tumor Volume Day 28 ([11]; 20 mg/kg paclitaxel Q7Dx4 IV): 283.6 | anti-tumor activity ([11]; paclitaxel 20 mg/kg IV Q7D for 4 weeks): strong anti-tumor activity | anti-tumor activity compared to vehicle control ([11]; single agent paclitaxel 10 mg/kg IV Q7D for 4 weeks): modest anti-tumor activity | Tumor Volume Day 19 ([12]; 10 mg/kg paclitaxel Q4Dx3 IV): 1093.5 | Tumor Volume Day 19 ([12]; 20 mg/kg paclitaxel Q4Dx3 IV): 245.2 | anti-tumor activity ([12]; paclitaxel IV at 20 mg/kg Q4D for 3 weeks): strong anti-tumor activity | anti-tumor activity compared to vehicle control [12, 14]: minimal to modest anti-tumor activity
